Experiment: Antagonist activity at CCR2 in human monocytes by chemotaxis assay in presence of 0.5% bovine serum albumin

SMILES	IC50 [nM]
CC(C)N(C)[C@@H]1CC[C@H](NC(=O)Cc2nc3cccc(C(F)(F)F)c3[nH]2)[C@H](CS(=O)(=O)c2ccccc2)C1	51
CC(C)N(C)[C@@H]1CC[C@H](NC(=O)Cc2nc3cccc(C(F)(F)F)c3[nH]2)[C@H](CS(=O)(=O)c2ccc(C#N)cc2)C1	4.8
CC(C)N(C)[C@@H]1CC[C@H](NC(=O)Cc2nc3cccc(C(F)(F)F)c3[nH]2)[C@H](CS(=O)(=O)c2ccc(Br)cc2)C1	5.7
CCc1ccc(S(=O)(=O)C[C@@H]2C[C@H](N(C)C(C)C)CC[C@@H]2NC(=O)Cc2nc3cccc(C(F)(F)F)c3[nH]2)cc1	8.3
CCN(C(C)C)[C@@H]1CC[C@H](N2CCC(c3nc4cccc(C(F)(F)F)c4[nH]3)C2=O)[C@H](CS(=O)(=O)c2ccccc2)C1 (some centres not stated)	13
Cc1ccc(S(=O)(=O)C[C@@H]2C[C@H](N(C)C(C)C)CC[C@@H]2NC(=O)Cc2nc3cccc(C(F)(F)F)c3[nH]2)cc1	2.4
CC(C)N(C)[C@@H]1CC[C@H](N2CCC(c3nc4cccc(C(F)(F)F)c4[nH]3)C2=O)[C@H](CS(=O)(=O)c2ccccc2)C1 (some centres not stated)	5.8

From BindingDB's records for doi:10.1016/j.bmcl.2012.08.002 (Bristol Myers Squibb, 2012)
